What was measured:
Assay in all cases: radiometric filter-binding kinase assay
AURKB (human) = AURKB (human) (UniProt Q96GD4)
BRSK2 (human) = BRSK2 (human) (UniProt Q8IWQ3)
CAMKK2 (human) = CAMKK2 (human) (UniProt Q96RR4)
CHEK1 (human) = CHEK1 (human) (UniProt O14757)
CLK2 (human) = CLK2 (human) (UniProt P49760)
CSNK2A1 (human) = CSNK2A1 (human) (UniProt P68400)
CaMK1 (human) = CaMK1 (human) (UniProt Q14012)
DAPK1 (human) = DAPK1 (human) (UniProt P53355)
DYRK1A (human) = DYRK1A (human) (UniProt Q13627)
DYRK3 (human) = DYRK3 (human) (UniProt O43781)
EPHB2 (human) = EPHB2 (human) (UniProt P29323); details: compound 0.1 µM
FGFR1 (human) = FGFR1 (human) (UniProt P11362)
GCK (human) = GCK (human) (UniProt Q12851)
HIPK1 (human) = HIPK1 (human) (UniProt Q86Z02)
HIPK2 (human) = HIPK2 (human) (UniProt Q9H2X6)
IGF1R (human) = IGF1R (human) (UniProt P08069)
JAK2 JH1 JH2 (human) = JAK2 JH1 JH2 (human) (UniProt O60674)
LCK (mouse) = details: accession and sequence are those of the human protein
MAPK10 (human) = MAPK10 (human) (UniProt P53779)
MAPK11 (human) = MAPK11 (human) (UniProt Q15759)
MAPK13 (human) = MAPK13 (human) (UniProt O15264)
MAPK8 (human) = MAPK8 (human) (UniProt P45983)
MAPKAPK5 (human) = MAPKAPK5 (human) (UniProt Q8IW41)
MARK3 (human) = MARK3 (human) (UniProt P27448)
MINK1 (human) = MINK1 (human) (UniProt Q8N4C8)
MKNK1 (human) = MKNK1 (human) (UniProt Q9BUB5)
[1] = tested on: PAK2 (human), Q13177 [T402E]
PHKG1 (human) = PHKG1 (human) (UniProt Q16816)
PIM3 (human) = PIM3 (human) (UniProt Q86V86)
ROCK2 (rat) = details: accession and sequence are those of the human protein
[2] = tested on: SGK1 (human), O00141 [S422D]; details: compound 10.0 µM
SRPK1 (human) = SRPK1 (human) (UniProt Q96SB4)
STK3 (human) = STK3 (human) (UniProt Q13188)
TAOK1 (human) = TAOK1 (human) (UniProt Q7L7X3)
TBK1 (human) = TBK1 (human) (UniProt Q9UHD2)
YES1 (human) = YES1 (human) (UniProt P07947)

HIPK2 (human), sequence (Q9H2X6 whole entry, looked up): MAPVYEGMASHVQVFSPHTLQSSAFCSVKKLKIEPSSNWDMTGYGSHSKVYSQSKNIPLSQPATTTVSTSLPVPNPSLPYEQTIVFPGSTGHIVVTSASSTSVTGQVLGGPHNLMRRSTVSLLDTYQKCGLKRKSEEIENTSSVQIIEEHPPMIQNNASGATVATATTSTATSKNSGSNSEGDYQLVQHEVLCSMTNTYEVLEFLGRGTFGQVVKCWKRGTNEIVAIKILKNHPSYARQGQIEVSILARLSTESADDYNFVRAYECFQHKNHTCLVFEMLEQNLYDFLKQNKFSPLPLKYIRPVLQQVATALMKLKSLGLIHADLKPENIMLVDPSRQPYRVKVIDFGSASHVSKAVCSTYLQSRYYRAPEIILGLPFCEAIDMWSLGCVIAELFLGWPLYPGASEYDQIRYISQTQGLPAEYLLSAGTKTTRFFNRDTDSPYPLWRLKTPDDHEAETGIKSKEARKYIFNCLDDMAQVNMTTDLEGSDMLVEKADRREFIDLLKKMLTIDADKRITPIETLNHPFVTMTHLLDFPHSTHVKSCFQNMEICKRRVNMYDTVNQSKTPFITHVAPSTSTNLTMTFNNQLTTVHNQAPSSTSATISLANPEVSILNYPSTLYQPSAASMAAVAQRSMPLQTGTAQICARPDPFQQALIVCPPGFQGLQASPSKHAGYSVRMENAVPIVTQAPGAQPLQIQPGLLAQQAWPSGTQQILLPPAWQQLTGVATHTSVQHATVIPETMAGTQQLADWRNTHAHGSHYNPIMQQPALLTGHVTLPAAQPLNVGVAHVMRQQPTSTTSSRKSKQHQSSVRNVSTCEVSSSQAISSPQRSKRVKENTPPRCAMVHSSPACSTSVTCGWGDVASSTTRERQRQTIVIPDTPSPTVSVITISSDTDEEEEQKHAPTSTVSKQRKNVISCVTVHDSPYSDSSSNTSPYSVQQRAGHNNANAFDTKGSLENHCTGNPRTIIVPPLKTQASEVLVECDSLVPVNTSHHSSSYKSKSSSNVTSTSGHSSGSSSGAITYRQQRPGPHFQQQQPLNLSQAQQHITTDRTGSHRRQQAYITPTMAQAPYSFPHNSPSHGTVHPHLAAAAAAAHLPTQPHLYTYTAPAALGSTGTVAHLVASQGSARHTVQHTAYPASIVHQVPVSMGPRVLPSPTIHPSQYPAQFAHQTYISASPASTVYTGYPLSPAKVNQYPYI
MAPK13 (human), sequence (O15264 whole entry, looked up): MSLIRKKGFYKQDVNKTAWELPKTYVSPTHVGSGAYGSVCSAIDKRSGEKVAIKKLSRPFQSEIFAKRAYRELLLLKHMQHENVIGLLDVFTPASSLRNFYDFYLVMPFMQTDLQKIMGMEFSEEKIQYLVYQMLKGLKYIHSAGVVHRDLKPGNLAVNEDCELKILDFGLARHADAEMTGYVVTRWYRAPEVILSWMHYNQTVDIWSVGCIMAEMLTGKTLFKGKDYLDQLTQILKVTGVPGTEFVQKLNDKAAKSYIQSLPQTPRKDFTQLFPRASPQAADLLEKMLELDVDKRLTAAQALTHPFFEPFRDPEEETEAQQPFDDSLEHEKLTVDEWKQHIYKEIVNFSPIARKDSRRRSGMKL
FGFR1 (human), sequence (P11362 whole entry, looked up): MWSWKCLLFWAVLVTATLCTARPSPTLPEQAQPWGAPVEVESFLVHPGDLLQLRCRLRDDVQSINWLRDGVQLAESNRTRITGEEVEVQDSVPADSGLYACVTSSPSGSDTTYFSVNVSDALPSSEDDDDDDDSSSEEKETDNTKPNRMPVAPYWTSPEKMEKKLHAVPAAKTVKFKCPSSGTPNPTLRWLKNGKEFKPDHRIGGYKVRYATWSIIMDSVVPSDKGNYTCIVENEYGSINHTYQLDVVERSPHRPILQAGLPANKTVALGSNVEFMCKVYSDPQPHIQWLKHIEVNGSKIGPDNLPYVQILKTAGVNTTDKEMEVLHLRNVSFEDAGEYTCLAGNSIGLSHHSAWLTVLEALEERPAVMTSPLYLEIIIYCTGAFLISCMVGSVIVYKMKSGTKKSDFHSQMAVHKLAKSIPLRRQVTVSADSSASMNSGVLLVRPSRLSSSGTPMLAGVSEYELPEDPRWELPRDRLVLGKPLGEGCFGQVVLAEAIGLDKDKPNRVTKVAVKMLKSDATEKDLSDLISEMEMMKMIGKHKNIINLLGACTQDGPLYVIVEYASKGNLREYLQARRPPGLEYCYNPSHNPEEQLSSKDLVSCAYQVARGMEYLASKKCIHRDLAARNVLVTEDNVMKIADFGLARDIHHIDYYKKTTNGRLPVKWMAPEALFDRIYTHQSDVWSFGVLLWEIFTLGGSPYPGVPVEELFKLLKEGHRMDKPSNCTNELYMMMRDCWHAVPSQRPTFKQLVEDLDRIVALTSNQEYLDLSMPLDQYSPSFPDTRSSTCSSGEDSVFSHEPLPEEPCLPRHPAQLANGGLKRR
MAPKAPK5 (human), sequence (Q8IW41 whole entry, looked up): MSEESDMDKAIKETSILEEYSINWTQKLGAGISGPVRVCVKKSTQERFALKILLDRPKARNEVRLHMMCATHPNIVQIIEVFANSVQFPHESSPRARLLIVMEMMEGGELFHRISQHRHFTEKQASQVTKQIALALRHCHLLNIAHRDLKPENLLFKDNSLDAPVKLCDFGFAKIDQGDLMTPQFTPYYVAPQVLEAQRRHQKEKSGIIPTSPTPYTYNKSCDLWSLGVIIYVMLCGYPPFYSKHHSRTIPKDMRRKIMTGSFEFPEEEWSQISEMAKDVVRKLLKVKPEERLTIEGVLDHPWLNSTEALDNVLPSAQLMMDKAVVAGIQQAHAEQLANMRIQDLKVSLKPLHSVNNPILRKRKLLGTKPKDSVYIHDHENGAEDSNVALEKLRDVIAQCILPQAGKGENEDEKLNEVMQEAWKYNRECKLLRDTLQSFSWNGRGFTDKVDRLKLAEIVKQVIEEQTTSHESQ
BRSK2 (human), sequence (Q8IWQ3 whole entry, looked up): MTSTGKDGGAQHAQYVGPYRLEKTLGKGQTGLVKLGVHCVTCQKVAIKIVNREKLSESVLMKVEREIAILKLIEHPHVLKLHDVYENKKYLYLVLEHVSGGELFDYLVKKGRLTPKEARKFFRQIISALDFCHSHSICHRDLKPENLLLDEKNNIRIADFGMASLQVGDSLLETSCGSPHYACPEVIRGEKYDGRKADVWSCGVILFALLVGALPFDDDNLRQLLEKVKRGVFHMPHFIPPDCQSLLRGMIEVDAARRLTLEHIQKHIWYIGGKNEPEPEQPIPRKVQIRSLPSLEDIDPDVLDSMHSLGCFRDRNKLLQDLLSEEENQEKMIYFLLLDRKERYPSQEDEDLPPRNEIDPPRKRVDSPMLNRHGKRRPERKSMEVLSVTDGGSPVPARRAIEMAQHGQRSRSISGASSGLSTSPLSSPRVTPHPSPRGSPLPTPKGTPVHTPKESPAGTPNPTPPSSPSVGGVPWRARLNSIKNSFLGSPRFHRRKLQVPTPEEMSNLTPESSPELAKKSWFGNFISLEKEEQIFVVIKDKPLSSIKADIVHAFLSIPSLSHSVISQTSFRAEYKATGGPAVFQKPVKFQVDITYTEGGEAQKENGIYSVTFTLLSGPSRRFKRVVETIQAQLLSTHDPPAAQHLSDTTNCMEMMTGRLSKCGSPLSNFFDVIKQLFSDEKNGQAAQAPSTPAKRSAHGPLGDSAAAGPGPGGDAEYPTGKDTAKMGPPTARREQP
PAK2 (human), Q13177 [T402E], sequence (Q13177 whole entry T402E, looked up): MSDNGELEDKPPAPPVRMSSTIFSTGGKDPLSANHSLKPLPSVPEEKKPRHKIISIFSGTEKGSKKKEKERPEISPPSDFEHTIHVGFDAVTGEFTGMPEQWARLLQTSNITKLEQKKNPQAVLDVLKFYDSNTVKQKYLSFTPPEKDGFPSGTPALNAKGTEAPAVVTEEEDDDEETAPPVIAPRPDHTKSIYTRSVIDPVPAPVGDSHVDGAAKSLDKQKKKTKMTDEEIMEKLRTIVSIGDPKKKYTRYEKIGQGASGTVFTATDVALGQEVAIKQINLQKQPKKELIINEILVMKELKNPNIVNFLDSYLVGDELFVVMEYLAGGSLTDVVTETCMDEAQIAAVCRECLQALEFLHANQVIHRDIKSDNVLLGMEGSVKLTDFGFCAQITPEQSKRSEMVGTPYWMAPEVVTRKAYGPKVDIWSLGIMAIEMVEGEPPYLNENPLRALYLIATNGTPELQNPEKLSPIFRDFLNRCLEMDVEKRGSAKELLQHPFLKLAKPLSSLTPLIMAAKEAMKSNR
GCK (human), sequence (Q12851 whole entry, looked up): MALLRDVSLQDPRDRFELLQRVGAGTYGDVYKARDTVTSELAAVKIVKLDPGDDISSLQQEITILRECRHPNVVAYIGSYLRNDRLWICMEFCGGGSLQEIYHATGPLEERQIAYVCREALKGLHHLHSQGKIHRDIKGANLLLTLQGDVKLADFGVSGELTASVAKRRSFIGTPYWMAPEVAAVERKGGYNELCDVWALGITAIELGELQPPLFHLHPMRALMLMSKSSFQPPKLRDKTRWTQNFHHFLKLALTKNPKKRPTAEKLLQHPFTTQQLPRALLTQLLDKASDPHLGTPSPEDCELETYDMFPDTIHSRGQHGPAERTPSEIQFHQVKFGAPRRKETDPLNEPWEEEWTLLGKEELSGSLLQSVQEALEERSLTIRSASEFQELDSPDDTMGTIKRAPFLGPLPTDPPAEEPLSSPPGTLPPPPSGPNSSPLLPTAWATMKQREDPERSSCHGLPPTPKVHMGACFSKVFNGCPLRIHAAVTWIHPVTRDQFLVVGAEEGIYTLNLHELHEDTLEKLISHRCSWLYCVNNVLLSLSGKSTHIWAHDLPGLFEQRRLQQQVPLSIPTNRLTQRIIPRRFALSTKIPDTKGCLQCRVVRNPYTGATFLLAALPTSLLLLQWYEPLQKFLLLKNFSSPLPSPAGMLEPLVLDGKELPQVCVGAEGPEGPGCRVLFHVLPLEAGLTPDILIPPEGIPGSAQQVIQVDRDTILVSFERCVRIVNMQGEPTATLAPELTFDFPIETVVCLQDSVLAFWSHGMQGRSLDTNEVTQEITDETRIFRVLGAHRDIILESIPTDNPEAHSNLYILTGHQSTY

Molecule NC(=O)c1cc(-c2ccnc(NC3CCCCC3)c2)nc(N2CCNCC2)c1 has a residual activity (AURKB (human); compound 0.1 µM) of 132%, a residual activity (AURKB (human); compound 1.0 µM) of 117% and a residual activity (AURKB (human); compound 10.0 µM) of 115%. It also gave a residual activity (BRSK2 (human); compound 0.1 µM) of 67%, a residual activity (BRSK2 (human); compound 1.0 µM) of 26% and a residual activity (BRSK2 (human); compound 10.0 µM) of 8%. For the same molecule, the residual activity (CAMKK2 (human); compound 0.1 µM) was 85%, the residual activity (CAMKK2 (human); compound 1.0 µM) was 99% and the residual activity (CAMKK2 (human); compound 10.0 µM) was 62%. The residual activity (CHEK1 (human); compound 1.0 µM) was 100%, the residual activity (CHEK1 (human); compound 10.0 µM) was 70% and the residual activity (CLK2 (human); compound 0.1 µM) was 78%. It also gave a residual activity (CLK2 (human); compound 10.0 µM) of 51%, a residual activity (CSNK2A1 (human); compound 0.1 µM) of 107% and a residual activity (CSNK2A1 (human); compound 1.0 µM) of 110%. For the same molecule, the residual activity (CSNK2A1 (human); compound 10.0 µM) was 65%, the residual activity (CaMK1 (human); compound 0.1 µM) was 81% and the residual activity (CaMK1 (human); compound 1.0 µM) was 20%. The residual activity (CaMK1 (human); compound 10.0 µM) was 1%, the residual activity (DAPK1 (human); compound 0.1 µM) was 102% and the residual activity (DAPK1 (human); compound 1.0 µM) was 93%. The residual activity (DAPK1 (human); compound 10.0 µM) was 40%, the residual activity (DYRK1A (human); compound 0.1 µM) was 97% and the residual activity (DYRK1A (human); compound 1.0 µM) was 63%. For the same molecule, the residual activity (DYRK1A (human); compound 10.0 µM) was 21%, the residual activity (DYRK3 (human); compound 0.1 µM) was 39% and the residual activity (DYRK3 (human); compound 1.0 µM) was 14%. For the same molecule, the residual activity (DYRK3 (human); compound 10.0 µM) was 7%, the residual activity (EPHB2 (human)) was 105% and the residual activity (FGFR1 (human); compound 0.1 µM) was 110%. It also gave a residual activity (FGFR1 (human); compound 1.0 µM) of 85%, a residual activity (FGFR1 (human); compound 10.0 µM) of 82% and a residual activity (GCK (human); compound 0.1 µM) of 41%. It also gave a residual activity (GCK (human); compound 1.0 µM) of 82%, a residual activity (GCK (human); compound 10.0 µM) of 44% and a residual activity (HIPK1 (human); compound 0.1 µM) of 99%. The residual activity (HIPK1 (human); compound 1.0 µM) was 99%, the residual activity (HIPK1 (human); compound 10.0 µM) was 106% and the residual activity (HIPK2 (human); compound 0.1 µM) was 89%. The residual activity (HIPK2 (human); compound 1.0 µM) was 125%, the residual activity (HIPK2 (human); compound 10.0 µM) was 87% and the residual activity (IGF1R (human); compound 0.1 µM) was 97%. For the same molecule, the residual activity (IGF1R (human); compound 1.0 µM) was 102%, the residual activity (IGF1R (human); compound 10.0 µM) was 99% and the residual activity (JAK2 JH1 JH2 (human); compound 0.1 µM) was 82%. For the same molecule, the residual activity (JAK2 JH1 JH2 (human); compound 1.0 µM) was 87%, the residual activity (JAK2 JH1 JH2 (human); compound 10.0 µM) was 89% and the residual activity (LCK (mouse); compound 0.1 µM) was 84%. It also gave a residual activity (LCK (mouse); compound 1.0 µM) of 30%, a residual activity (LCK (mouse); compound 10.0 µM) of 9% and a residual activity (MAPK10 (human); compound 0.1 µM) of 88%. For the same molecule, the residual activity (MAPK10 (human); compound 1.0 µM) was 79%, the residual activity (MAPK10 (human); compound 10.0 µM) was 31% and the residual activity (MAPK11 (human); compound 0.1 µM) was 99%. It also gave a residual activity (MAPK11 (human); compound 1.0 µM) of 96%, a residual activity (MAPK11 (human); compound 10.0 µM) of 62% and a residual activity (MAPK13 (human); compound 0.1 µM) of 89%. It also gave a residual activity (MAPK13 (human); compound 1.0 µM) of 93%, a residual activity (MAPK13 (human); compound 10.0 µM) of 50% and a residual activity (MAPK8 (human); compound 0.1 µM) of 109%. It also gave a residual activity (MAPK8 (human); compound 1.0 µM) of 100%, a residual activity (MAPK8 (human); compound 10.0 µM) of 38% and a residual activity (MAPKAPK5 (human); compound 0.1 µM) of 109%. It also gave a residual activity (MAPKAPK5 (human); compound 1.0 µM) of 97%, a residual activity (MAPKAPK5 (human); compound 10.0 µM) of 65% and a residual activity (MARK3 (human); compound 0.1 µM) of 92%. The residual activity (MARK3 (human); compound 1.0 µM) was 40%, the residual activity (MARK3 (human); compound 10.0 µM) was 15% and the residual activity (MINK1 (human); compound 0.1 µM) was 65%. The residual activity (MINK1 (human); compound 1.0 µM) was 13%, the residual activity (MINK1 (human); compound 10.0 µM) was 2% and the residual activity (MKNK1 (human); compound 0.1 µM) was 95%. It also gave a residual activity (MKNK1 (human); compound 1.0 µM) of 38%, a residual activity (MKNK1 (human); compound 10.0 µM) of 7% and a residual activity ([1]; compound 0.1 µM) of 105%. For the same molecule, the residual activity ([1]; compound 1.0 µM) was 93%, the residual activity ([1]; compound 10.0 µM) was 57% and the residual activity (PHKG1 (human); compound 0.1 µM) was 82%. For the same molecule, the residual activity (PHKG1 (human); compound 1.0 µM) was 29%, the residual activity (PHKG1 (human); compound 10.0 µM) was 5% and the residual activity (PIM3 (human); compound 0.1 µM) was 97%. The residual activity (PIM3 (human); compound 1.0 µM) was 58%, the residual activity (PIM3 (human); compound 10.0 µM) was 42% and the residual activity (ROCK2 (rat); compound 0.1 µM) was 99%. The residual activity (ROCK2 (rat); compound 10.0 µM) was 51%, the residual activity [2] was 90% and the residual activity (SRPK1 (human); compound 0.1 µM) was 105%. For the same molecule, the residual activity (SRPK1 (human); compound 1.0 µM) was 86%, the residual activity (SRPK1 (human); compound 10.0 µM) was 46% and the residual activity (STK3 (human); compound 0.1 µM) was 103%. For the same molecule, the residual activity (STK3 (human); compound 1.0 µM) was 110%, the residual activity (STK3 (human); compound 10.0 µM) was 98% and the residual activity (TAOK1 (human); compound 0.1 µM) was 103%. For the same molecule, the residual activity (TAOK1 (human); compound 10.0 µM) was 53%, the residual activity (TBK1 (human); compound 1.0 µM) was 88% and the residual activity (TBK1 (human); compound 10.0 µM) was 30%. For the same molecule, the residual activity (YES1 (human); compound 0.1 µM) was 107%, the residual activity (YES1 (human); compound 1.0 µM) was 94% and the residual activity (YES1 (human); compound 10.0 µM) was 76%.

— the kinase profiling compilation of Christmann-Franck et al. (2016)
